Values joined by “and” are separate entries in the source; they are usually repeats but may differ in a detail not shown here. Equal values may be shown once.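 Results reflect a 48-hour exposure of cells in 96-well plates to compound at five concentrations. Abbreviation: GI50, concentration required for 50% inhibition of growth. At the TGI there is no net growth.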
Columns and labels:
Assay in all cases: growth of human tumour cells (NCI), 48 h
DMS 114 small cell lung = system: DMS 114 small cell lung
M19-MEL melanoma = system: M19-MEL melanoma
SF-295 CNS = system: SF-295 CNS
DMS 273 small cell lung = system: DMS 273 small cell lung
SK-OV-3 ovarian = system: SK-OV-3 ovarian
NCI-H23 lung = system: NCI-H23 lung
XF 498 CNS = system: XF 498 CNS
OVCAR-8 ovarian = system: OVCAR-8 ovarian
HT29 colon = system: HT29 colon
LOX IMVI melanoma = system: LOX IMVI melanoma

| Compound | TGI (DMS 114 small cell lung) | TGI (M19-MEL melanoma) | TGI (SF-295 CNS) | TGI (DMS 273 small cell lung) | TGI (SK-OV-3 ovarian) | TGI (NCI-H23 lung) | TGI (XF 498 CNS) | TGI (OVCAR-8 ovarian) | TGI (HT29 colon) | TGI (LOX IMVI melanoma) | GI50 (HT29 colon) | GI50 (DMS 114 small cell lung) | GI50 (M19-MEL melanoma) | GI50 (SF-295 CNS) | GI50 (DMS 273 small cell lung) | GI50 (SK-OV-3 ovarian) | GI50 (NCI-H23 lung) | GI50 (XF 498 CNS) | GI50 (OVCAR-8 ovarian) | GI50 (LOX IMVI melanoma) |
| --- | --- | --- | --- | --- | --- | --- | --- | --- | --- | --- | --- | --- | --- | --- | --- | --- | --- | --- | --- | --- |
| O=C1C2C3C=CC(C2C(=O)N1CN1CCSCC1)C1C2C(=O)N(CN4CCSCC4)C(=O)C2C31 (stereo unspecified) | > 56.1 µM | > 100 µM | > 100 µM | > 61.4 µM | > 100 µM | > 100 µM | > 100 µM | > 100 µM | > 100 µM | > 80.5 µM | – | – | – | – | – | – | – | – | – | – |
| O=c1cc(-c2ccccc2)[nH]c2cc(Cl)ccc12 | 3.29 µM | > 100 µM | 2.07 µM | 10.5 µM | 3.95 µM | 4.35 µM | 1.71 µM | 33.1 µM | > 100 µM | 21.7 µM | – | – | – | – | – | – | – | – | – | – |
| CCOC(=O)c1cccnc1C(OC(C)=O)OC(C)=O | > 100 µM | > 100 µM | > 100 µM | > 100 µM | > 100 µM | > 100 µM | > 100 µM | > 100 µM | > 100 µM | > 100 µM | – | – | – | – | – | – | – | – | – | – |
| CC1CC[P+](c2ccccc2)(c2ccccc2)CC1 | > 100 µM | > 100 µM | > 100 µM | > 100 µM | > 100 µM | > 100 µM | 77.4 µM | > 100 µM | > 100 µM | > 100 µM | – | – | – | – | – | – | – | – | – | – |
| Cn1cnc([N+](=O)[O-])c1Sc1nccc(=O)[nH]1 | > 100 µM | > 100 µM | > 100 µM | > 100 µM | > 100 µM | > 100 µM | > 100 µM | > 100 µM | > 100 µM | > 100 µM | – | – | – | – | – | – | – | – | – | – |
| CCCCCCCCCCCCCB(O)O | > 100 µM | > 100 µM | > 100 µM | > 100 µM | > 100 µM | > 100 µM | > 100 µM | > 100 µM | > 100 µM | > 100 µM | > 100 µM and 29.9 µM | – | – | – | – | – | – | – | – | – |
| COC(=O)C(/C(=N\NC(N)=S)C(=O)Nc1ccccc1[N+](=O)[O-])c1cnc2ccccc2n1 (stereo unspecified) | > 100 µM | > 100 µM | > 100 µM | > 100 µM | > 100 µM | > 100 µM | > 100 µM | > 100 µM | > 100 µM | > 100 µM | – | – | – | – | – | – | – | – | – | – |
| C=CCN(N=O)C(=O)NCCCCC(NC(C)=O)C(=O)NCc1ccccc1 (stereo unspecified) | > 100 µM | > 100 µM | > 100 µM | > 100 µM | > 100 µM | > 100 µM | > 100 µM | > 100 µM | > 100 µM | > 100 µM | – | – | – | – | – | – | – | – | – | – |
| C[CH2][Sn]([CH2]C)([O]C(=O)c1ccc(OC)c(OC)c1OC)[O]C(=O)c1ccc(OC)c(OC)c1OC | > 72.8 µM | > 100 µM | > 100 µM | > 100 µM | > 100 µM | > 67.1 µM | > 71.5 µM | > 100 µM | > 100 µM | > 69.7 µM | > 96 µM | 25.7 µM | 53.2 µM | > 100 µM | > 100 µM | > 100 µM | 33 µM | 34.6 µM | > 100 µM | 27.2 µM |

— PubChem BioAssay (NCI)
